Test results published in PubChem BioAssay AID2060488 (Molecular Pharmacology Branch, DTP, NCI, 2025).
pIC50: −log10 of the molar value. Several values for one entry are separate records, joined by “and”; a condition that tells them apart may be missing. Equal entries are not always repeated.

Tested on: 966289-007-R4-J1-PDC complex spheroid viability
Assay: Anticancer human tumor 966289-007-R4-J1-PDC patient-derived pancreatic adenocarcinoma cell line growth inhibition [GQUAD]
Settings: for viability, T/C: stronger effect = lower value; active means viability on the fitted dose curve at most 10% of control; inactive means the rest
Summary of the method: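 Viability of tumor cells grown as complex spheroids with endothelial and stromal cells, exposed to drug combinations. Top concentration at or near clinical Cmax (else 10 microM), diluted in half-log increments.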

[1] = curve of first compound, second compound 0.0316 µM
[2] = curve of first compound, second compound 0.1 µM
[3] = curve of first compound, second compound 0.316 µM
[4] = curve of first compound, second compound 1 µM
[5] = curve of first compound, second compound 3.16 µM
[6] = curve of first compound, second compound 10 µM
[7] = second compound 0.0316 µM, first compound 0.0316 µM
[8] = second compound 0.0316 µM, first compound 0.1 µM
[9] = second compound 0.0316 µM, first compound 0.316 µM
[10] = second compound 0.0316 µM, first compound 1 µM
[11] = second compound 0.0316 µM, first compound 3.16 µM
[12] = second compound 0.0316 µM, first compound 10 µM
[13] = second compound 0.1 µM, first compound 0.0316 µM
[14] = second compound 0.1 µM, first compound 0.1 µM
[15] = second compound 0.1 µM, first compound 0.316 µM
[16] = second compound 0.1 µM, first compound 1 µM
[17] = second compound 0.1 µM, first compound 3.16 µM
[18] = second compound 0.1 µM, first compound 10 µM
[19] = second compound 0.316 µM, first compound 0.0316 µM
[20] = second compound 0.316 µM, first compound 0.1 µM
[21] = second compound 0.316 µM, first compound 0.316 µM
[22] = second compound 0.316 µM, first compound 1 µM
[23] = second compound 0.316 µM, first compound 3.16 µM
[24] = second compound 0.316 µM, first compound 10 µM
[25] = second compound 1 µM, first compound 0.0316 µM
[26] = second compound 1 µM, first compound 0.1 µM
[27] = second compound 1 µM, first compound 0.316 µM
[28] = second compound 1 µM, first compound 1 µM
[29] = second compound 1 µM, first compound 3.16 µM
[30] = second compound 1 µM, first compound 10 µM
[31] = second compound 3.16 µM, first compound 0.0316 µM
[32] = second compound 3.16 µM, first compound 0.1 µM
[33] = second compound 3.16 µM, first compound 0.316 µM
[34] = second compound 3.16 µM, first compound 1 µM
[35] = second compound 3.16 µM, first compound 3.16 µM
[36] = second compound 3.16 µM, first compound 10 µM
[37] = second compound 10 µM, first compound 0.0316 µM
[38] = second compound 10 µM, first compound 0.1 µM
[39] = second compound 10 µM, first compound 0.316 µM
[40] = second compound 10 µM, first compound 1 µM
[41] = second compound 10 µM, first compound 3.16 µM
[42] = second compound 10 µM, first compound 10 µM
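Further: spheroids exposed to the agents for seven days before readout.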
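Wherever viability, T/C is given: percent viability relative to DMSO vehicle control wells taken as 100%.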

CC(C)n1c(=O)n(C)c2cnc3cc(F)c(-c4ccc(OCCCN5CCCCC5)nc4)cc3c21 + Cc1[nH]c2ccc(F)cc2c1-c1nc2c3cccnc3c3ncccc3c2[nH]1
< 5.00: pIC50 [1] | pIC50 [2] | pIC50 [3] | pIC50 [4] | pIC50 [5] | pIC50 [6]
inactive: viability, T/C [7] 112% | viability, T/C [8] 101% | viability, T/C [9] 110% | viability, T/C [10] 101% | viability, T/C [11] 109% | viability, T/C [12] 82.4% | viability, T/C [13] 104% | viability, T/C [14] 101% | viability, T/C [15] 109% | viability, T/C [16] 105% | viability, T/C [17] 110% | viability, T/C [18] 89.1% | viability, T/C [19] 99.8% | viability, T/C [20] 110% | viability, T/C [21] 106% | viability, T/C [22] 111% | viability, T/C [23] 105% | viability, T/C [24] 85.9% | viability, T/C [25] 104% | viability, T/C [26] 108% | viability, T/C [27] 109% | viability, T/C [28] 109% | viability, T/C [29] 109% | viability, T/C [30] 85.5% | viability, T/C [31] 102% | viability, T/C [32] 107% | viability, T/C [33] 110% | viability, T/C [34] 104% | viability, T/C [35] 105% | viability, T/C [36] 62.2% | viability, T/C [37] 103% | viability, T/C [38] 104% | viability, T/C [39] 107% | viability, T/C [40] 104% | viability, T/C [41] 94.9% | viability, T/C [42] 61.8%

Cc1cccc(N(C)C(=O)C2C(O)CCN2c2nc(C)cc(C(F)(F)F)c2C#N)c1 (stereo not drawn)
inactive: viability, T/C (compound 0.0316 µM) 92% and 111% and 99.9% | viability, T/C (compound 0.1 µM) 98.4% and 97.2% and 95.8% | viability, T/C (compound 0.316 µM) 103% (2×) and 109% | viability, T/C (compound 1 µM) 94.9% and 98% and 99.5% | viability, T/C (compound 3.16 µM) 107% and 106% and 89.2% | viability, T/C (compound 10 µM) 102% and 107% (2×)
< 5.00: pIC50 (curve of compound)

CCc1c2c(nc3ccc(O)cc13)-c1cc3c(c(=O)n1C2)COC(=O)[C@]3(O)CC
active: viability, T/C (compound 0.00316 µM) 0.79% and 0.89% and 0.66% | viability, T/C (compound 0.00999 µM) 0.67% and 0.66% and 0.5% | viability, T/C (compound 0.0316 µM) 0.8% and 0.6% and 0.43% | viability, T/C (compound 0.0999 µM) 0.53% and 0.49% and 0.38% | viability, T/C (compound 0.316 µM) 0.45% and 0.44% and 0.36%
> 9.00: pIC50 (curve of compound)
inactive: viability, T/C (compound 0.000999 µM) 21.8% and 23.1% and 26.9%

CCCS(=O)(=O)Nc1ccc(F)c(C(=O)c2c[nH]c3ncc(-c4ccc(Cl)cc4)cc23)c1F + CN(C)c1ccc(Nc2c3ccc(NC(=O)CCN4CCCC4)cc3nc3cc(NC(=O)CCN4CCCC4)ccc23)cc1
5.16: pIC50 [4]
5.69: pIC50 [6]
5.13: pIC50 [1] | pIC50 [2] | pIC50 [3]
5.25: pIC50 [5]
active: viability, T/C [36] 7.98% | viability, T/C [42] 0.53%
inactive: viability, T/C [7] 99.4% | viability, T/C [8] 97.3% | viability, T/C [9] 109% | viability, T/C [10] 103% | viability, T/C [11] 104% | viability, T/C [12] 30.5% | viability, T/C [13] 100% | viability, T/C [14] 101% | viability, T/C [15] 99.3% | viability, T/C [16] 102% | viability, T/C [17] 107% | viability, T/C [18] 30.8% | viability, T/C [19] 100% | viability, T/C [20] 105% | viability, T/C [21] 103% | viability, T/C [22] 106% | viability, T/C [23] 102% | viability, T/C [24] 31.8% | viability, T/C [25] 92.2% | viability, T/C [26] 104% | viability, T/C [27] 109% | viability, T/C [28] 108% | viability, T/C [29] 103% | viability, T/C [30] 24.4% | viability, T/C [31] 99.8% | viability, T/C [32] 99.9% | viability, T/C [33] 110% | viability, T/C [34] 104% | viability, T/C [35] 93.4% | viability, T/C [37] 103% | viability, T/C [38] 102% | viability, T/C [39] 106% | viability, T/C [40] 103% | viability, T/C [41] 17.2%
